# From patent US20080200555A1, “USE OF NOREPINEPHRINE REUPTAKE INHIBITORS FOR THE TREATMENT OF TIC DISORDERS” (priority 2001, published 2008)
# Test: Case report: atomoxetine treatment of a person with ADHD and tics (Example 1)
# Assay type: in vivo, human
# Source text: A person presented with ADHD and tics. […] At baseline, the tics included multiple motor and multiple vocal tics, some complex or in bouts. Their vocal tics were especially problematic and disruptive, causing difficulties for the child at school, in social situations, and when the family went out in public (for example, to a restaurant). The clinical global impression-severity score (CGI-S) is a seven-point scale (1=normal, 7=very severely ill) that summarizes a clinician's overall impression about how severe a patient's illness is compared to other patients the clinician has treated. Based on the parent's report, the retrospective CGI-S score for the child's tics at baseline was 5, markedly ill. The YGTSS is the Yale Global Tic Severity Scale and summarizes the number, severity and frequency of a patient's tics. The minimum score on the YGTSS is zero and the maximum is 50. Based on the parent's description the patient's baseline YGTSS was about 30.
# After about 2 to 3 weeks of atomoxetine treatment, the patient's parent reported a single head tic and a few eye blinking tics in the previous week, and no vocal tics. The parent also reported that the patient's complex tics or compulsive behaviors (which had involved them playing with some doors with their feet in a somewhat stereotypical manner), had also stopped. […] The CGI-S score for the child's tics based on the interview with their parent was […], minimally ill. Based on the same interview, the YGTSS total score for the child was 8. The clinical global impression-improvement (CGI-I) score is a seven-point scale (1=very much improve, 7=very much worse) that summarizes a clinician's overall impression about how much a patient has improved with treatment as compared to where they were at baseline. The CGI-I score for the patient's tics was 1, very much improved.
# [1] = after about 2 to 3 weeks of atomoxetine treatment
structure (smiles),measurement,setting,value
"CNCC[C@@H](Oc1ccccc1C)c1ccccc1 [atomoxetine, (R)-(−)-N-methyl-3-(2-methylphenoxy)-3-phenylpropylamine]",complex tics or compulsive behaviors (mother's report),[1],stopped
same,vocal tics in the previous week (mother's report),[1],no vocal tics
same,YGTSS (Yale Global Tic Severity Scale) total score,"person with ADHD and tics, after about 2 to 3 weeks of atomoxetine treatment, scale 0 to 50, baseline about 30",8
same,clinical global impression-severity score (CGI-S) for the child's tics,"person with ADHD and tics, after about 2 to 3 weeks of atomoxetine treatment, seven-point scale (1=normal, 7=very severely ill), baseline 5",2a
same,change in tics after starting treatment,"person with ADHD and tics, after starting on atomoxetine",dramatic drop
same,ADHD,"person with ADHD and tics, on atomoxetine treatment",improved
same,clinical global impression-improvement (CGI-I) score for the patient's tics,"person with ADHD and tics, seven-point scale (1=very much improve, 7=very much worse), compared to baseline",1
